Experimental data: paper PMC9221290, “Alkaloids of Dicranostigma franchetianum (Papaveraceae) and Berberine Derivatives as a New Class of Antimycobacterial Agents” (Biomolecules, 2022)

Test system: HepG2 cells
Assay: not given
Conditions: not given

Row | SMILES | SI (selectivity index)
1 | COc1ccc2cc3[n+](cc2c1OCc1cccc(C)c1)CCc1cc2c(cc1-3)OCO2 [16c, 9-O-(3-methylbenzyl)berberine chloride] | 3.49

Test system: not listed separately
Assay: in vitro
Conditions: human, % of cell viability compared to control, 1. measurement, HepG2, 1 µM

Row | SMILES | viability at 1 µM [%]
2 | COc1ccc2cc3[n+](cc2c1OCc1cccc(C)c1)CCc1cc2c(cc1-3)OCO2 [16c, 9-O-(3-methylbenzyl)berberine chloride] | 87.2

Same assay, conditions: human, % of cell viability compared to control, 1. measurement, HepG2, 5 µM

Row | SMILES | viability at 5 µM [%]
3 | COc1ccc2cc3[n+](cc2c1OCc1cccc(C)c1)CCc1cc2c(cc1-3)OCO2 [16c, 9-O-(3-methylbenzyl)berberine chloride] | 88.3

Same assay, conditions: human, % of cell viability compared to control, 1. measurement, HepG2, 10 µM

Row | SMILES | viability at 10 µM [%]
4 | COc1ccc2cc3[n+](cc2c1OCc1cccc(C)c1)CCc1cc2c(cc1-3)OCO2 [16c, 9-O-(3-methylbenzyl)berberine chloride] | 74

Same assay, conditions: human, % of cell viability compared to control, 1. measurement, HepG2, 20 µM

Row | SMILES | viability at 20 µM [%]
5 | COc1ccc2cc3[n+](cc2c1OCc1cccc(C)c1)CCc1cc2c(cc1-3)OCO2 [16c, 9-O-(3-methylbenzyl)berberine chloride] | 58.4

Same assay, conditions: human, % of cell viability compared to control, 1. measurement, HepG2, 40 µM

Row | SMILES | viability at 40 µM [%]
6 | COc1ccc2cc3[n+](cc2c1OCc1cccc(C)c1)CCc1cc2c(cc1-3)OCO2 [16c, 9-O-(3-methylbenzyl)berberine chloride] | 54.5

Same assay, conditions: human, % of cell viability compared to control, 1. measurement, HepG2, 60 µM

Row | SMILES | viability at 60 µM [%]
7 | COc1ccc2cc3[n+](cc2c1OCc1cccc(C)c1)CCc1cc2c(cc1-3)OCO2 [16c, 9-O-(3-methylbenzyl)berberine chloride] | 53.3

Same assay, conditions: human, % of cell viability compared to control, 1. measurement, HepG2, 80 µM

Row | SMILES | viability at 80 µM [%]
8 | COc1ccc2cc3[n+](cc2c1OCc1cccc(C)c1)CCc1cc2c(cc1-3)OCO2 [16c, 9-O-(3-methylbenzyl)berberine chloride] | 49.5

Same assay, conditions: human, % of cell viability compared to control, 1. measurement, HepG2, 100 µM

Row | SMILES | viability at 100 µM [%]
9 | COc1ccc2cc3[n+](cc2c1OCc1cccc(C)c1)CCc1cc2c(cc1-3)OCO2 [16c, 9-O-(3-methylbenzyl)berberine chloride] | 35.1

Same assay, conditions: human, % of cell viability compared to control, 2. measurement, HepG2, 1 µM

Row | SMILES | viability at 1 µM [%]
10 | COc1ccc2cc3[n+](cc2c1OCc1cccc(C)c1)CCc1cc2c(cc1-3)OCO2 [16c, 9-O-(3-methylbenzyl)berberine chloride] | 88.3

Same assay, conditions: human, % of cell viability compared to control, 2. measurement, HepG2, 5 µM

Row | SMILES | viability at 5 µM [%]
11 | COc1ccc2cc3[n+](cc2c1OCc1cccc(C)c1)CCc1cc2c(cc1-3)OCO2 [16c, 9-O-(3-methylbenzyl)berberine chloride] | 78.7

Same assay, conditions: human, % of cell viability compared to control, 2. measurement, HepG2, 10 µM

Row | SMILES | viability at 10 µM [%]
12 | COc1ccc2cc3[n+](cc2c1OCc1cccc(C)c1)CCc1cc2c(cc1-3)OCO2 [16c, 9-O-(3-methylbenzyl)berberine chloride] | 68.3

Same assay, conditions: human, % of cell viability compared to control, 2. measurement, HepG2, 25 µM

Row | SMILES | viability at 25 µM [%]
13 | COc1ccc2cc3[n+](cc2c1OCc1cccc(C)c1)CCc1cc2c(cc1-3)OCO2 [16c, 9-O-(3-methylbenzyl)berberine chloride] | 52.9

Same assay, conditions: human, % of cell viability compared to control, 2. measurement, HepG2, 50 µM

Row | SMILES | viability at 50 µM [%]
14 | COc1ccc2cc3[n+](cc2c1OCc1cccc(C)c1)CCc1cc2c(cc1-3)OCO2 [16c, 9-O-(3-methylbenzyl)berberine chloride] | 47.9

Same assay, conditions: human, % of cell viability compared to control, 2. measurement, HepG2, 75 µM

Row | SMILES | viability at 75 µM [%]
15 | COc1ccc2cc3[n+](cc2c1OCc1cccc(C)c1)CCc1cc2c(cc1-3)OCO2 [16c, 9-O-(3-methylbenzyl)berberine chloride] | 45.7

Same assay, conditions: human, % of cell viability compared to control, 2. measurement, HepG2, 100 µM

Row | SMILES | viability at 100 µM [%]
16 | COc1ccc2cc3[n+](cc2c1OCc1cccc(C)c1)CCc1cc2c(cc1-3)OCO2 [16c, 9-O-(3-methylbenzyl)berberine chloride] | 39

Same assay, conditions: human, % of cell viability compared to control, 3. measurement, HepG2, 0.1 µM

Row | SMILES | viability at 0.1 µM [%]
17 | COc1ccc2cc3[n+](cc2c1OCc1cccc(C)c1)CCc1cc2c(cc1-3)OCO2 [16c, 9-O-(3-methylbenzyl)berberine chloride] | 102

Same assay, conditions: human, % of cell viability compared to control, 3. measurement, HepG2, 1 µM

Row | SMILES | viability at 1 µM [%]
18 | COc1ccc2cc3[n+](cc2c1OCc1cccc(C)c1)CCc1cc2c(cc1-3)OCO2 [16c, 9-O-(3-methylbenzyl)berberine chloride] | 99.8

Same assay, conditions: human, % of cell viability compared to control, 3. measurement, HepG2, 5 µM

Row | SMILES | viability at 5 µM [%]
19 | COc1ccc2cc3[n+](cc2c1OCc1cccc(C)c1)CCc1cc2c(cc1-3)OCO2 [16c, 9-O-(3-methylbenzyl)berberine chloride] | 78.9

Same assay, conditions: human, % of cell viability compared to control, 3. measurement, HepG2, 10 µM

Row | SMILES | viability at 10 µM [%]
20 | COc1ccc2cc3[n+](cc2c1OCc1cccc(C)c1)CCc1cc2c(cc1-3)OCO2 [16c, 9-O-(3-methylbenzyl)berberine chloride] | 64.9

Same assay, conditions: human, % of cell viability compared to control, 3. measurement, HepG2, 25 µM

Row | SMILES | viability at 25 µM [%]
21 | COc1ccc2cc3[n+](cc2c1OCc1cccc(C)c1)CCc1cc2c(cc1-3)OCO2 [16c, 9-O-(3-methylbenzyl)berberine chloride] | 48.6

Same assay, conditions: human, % of cell viability compared to control, 3. measurement, HepG2, 50 µM

Row | SMILES | viability at 50 µM [%]
22 | COc1ccc2cc3[n+](cc2c1OCc1cccc(C)c1)CCc1cc2c(cc1-3)OCO2 [16c, 9-O-(3-methylbenzyl)berberine chloride] | 47.3

Same assay, conditions: human, % of cell viability compared to control, 3. measurement, HepG2, 75 µM

Row | SMILES | viability at 75 µM [%]
23 | COc1ccc2cc3[n+](cc2c1OCc1cccc(C)c1)CCc1cc2c(cc1-3)OCO2 [16c, 9-O-(3-methylbenzyl)berberine chloride] | 46.1

Same assay, conditions: human, % of cell viability compared to control, 3. measurement, HepG2, 100 µM

Row | SMILES | viability at 100 µM [%]
24 | COc1ccc2cc3[n+](cc2c1OCc1cccc(C)c1)CCc1cc2c(cc1-3)OCO2 [16c, 9-O-(3-methylbenzyl)berberine chloride] | 42.5

Test system: Mycobacterium kansasii DSM 44162 (ATCC 12478)
Assay: Antimycobacterial microdilution broth assay (resazurin), M. kansasii
Format: cell-based
Conditions: Mycobacterium kansasii, 96 h, read-out: MIC M. kansasii, microdilution broth, resazurin, 96 h

Row | SMILES | MIC [mg/L]
25 | COc1ccc2cc3[n+](cc2c1OCc1cccc(C)c1)CCc1cc2c(cc1-3)OCO2 [16c, 9-O-(3-methylbenzyl)berberine chloride] | 6.25

Test system: Mtb H37Ra ITM-M006710 (ATCC 9431)
Assay: Antimycobacterial microdilution broth assay (resazurin), Mtb H37Ra
Format: cell-based, Mycobacterium tuberculosis
Conditions: Mycobacterium tuberculosis, 120 h, microdilution broth, resazurin, 120 h; read-out: MIC Mtb H37Ra

Row | SMILES | MIC [mg/L]
26 | COc1ccc2cc3[n+](cc2c1OCc1cccc(C)c1)CCc1cc2c(cc1-3)OCO2 [16c, 9-O-(3-methylbenzyl)berberine chloride] | 6.25

Same assay, conditions: Mycobacterium tuberculosis, calculated from MIC (µg/mL) and MW; read-out: MIC Mtb H37Ra

Row | SMILES | MIC [µM]
27 | COc1ccc2cc3[n+](cc2c1OCc1cccc(C)c1)CCc1cc2c(cc1-3)OCO2 [16c, 9-O-(3-methylbenzyl)berberine chloride] | 13.5

Test system: Mycolicibacterium aurum DSM 43999 (ATCC 23366)
Assay: Antimycobacterial microdilution broth assay (resazurin), M. aurum
Format: cell-based
Conditions: Mycolicibacterium aurum, 72 h, read-out: MIC M. aurum, microdilution broth, resazurin, 72 h

Row | SMILES | MIC [mg/L]
28 | COc1ccc2cc3[n+](cc2c1OCc1cccc(C)c1)CCc1cc2c(cc1-3)OCO2 [16c, 9-O-(3-methylbenzyl)berberine chloride] | 3.12

Test system: Mycobacterium avium DSM 44156 (ATCC 25291)
Assay: Antimycobacterial microdilution broth assay (resazurin), M. avium
Format: cell-based
Conditions: Mycobacterium avium, 96 h, read-out: MIC M. avium, microdilution broth, resazurin, 96 h

Row | SMILES | MIC [mg/L]
29 | COc1ccc2cc3[n+](cc2c1OCc1cccc(C)c1)CCc1cc2c(cc1-3)OCO2 [16c, 9-O-(3-methylbenzyl)berberine chloride] | 6.25

Test system: Mycolicibacterium smegmatis DSM 43465 (ATCC 607)
Assay: Antimycobacterial microdilution broth assay (resazurin), M. smegmatis
Format: cell-based
Conditions: Mycolicibacterium smegmatis, 48 h, read-out: MIC M. smegmatis, microdilution broth, resazurin, 48 h

Row | SMILES | MIC [mg/L]
30 | COc1ccc2cc3[n+](cc2c1OCc1cccc(C)c1)CCc1cc2c(cc1-3)OCO2 [16c, 9-O-(3-methylbenzyl)berberine chloride] | 1.56

Test system: HepG2 cells
Assay: cells
Conditions: Homo sapiens, HepG2, 24 h, read-out: HepG2 IC50, 1. measurement, MTT, 24 h, single measurement 1

Row | SMILES | IC50 [µM]
31 | COc1ccc2cc3[n+](cc2c1OCc1cccc(C)c1)CCc1cc2c(cc1-3)OCO2 [16c, 9-O-(3-methylbenzyl)berberine chloride] | 55.6

Same assay, conditions: Homo sapiens, HepG2, 24 h, read-out: HepG2 IC50, 2. measurement, MTT, 24 h, single measurement 2

Row | SMILES | IC50 [µM]
32 | COc1ccc2cc3[n+](cc2c1OCc1cccc(C)c1)CCc1cc2c(cc1-3)OCO2 [16c, 9-O-(3-methylbenzyl)berberine chloride] | 43.4

Same assay, conditions: Homo sapiens, HepG2, 24 h, read-out: HepG2 IC50, 3. measurement, MTT, 24 h, single measurement 3

Row | SMILES | IC50 [µM]
33 | COc1ccc2cc3[n+](cc2c1OCc1cccc(C)c1)CCc1cc2c(cc1-3)OCO2 [16c, 9-O-(3-methylbenzyl)berberine chloride] | 42.3

Same assay, conditions: Homo sapiens, HepG2, 24 h, read-out: HepG2 IC50, MTT, 24 h incubation

Row | SMILES | IC50 [µM]
34 | COc1ccc2cc3[n+](cc2c1OCc1cccc(C)c1)CCc1cc2c(cc1-3)OCO2 [16c, 9-O-(3-methylbenzyl)berberine chloride] | 47.1 ± 7.38
